From patent US20090286831A1, “VR1 Receptor Ligands and u-Opioid Receptor Ligands for the Treatment of Pain” (priority 2006, published 2009)
Marks after values point to notes of the source that are not given here.

What was measured:
rats = experiment: Tail-flick (hot beam) test in rats; type: in vivo, rat; conditions: dosage 30 mg/kg i.v.
Experimental: Sprague Dawley rats (140-160 g body weight) were used for the following animal models. Sprague Dawley rats (140-160 g body weight) from a commercial breeder (Janvier, Genest St. Isle, France) were used. The animals were kept under standard conditions: light-dark rhythm (06:00 to 18:00 h light, 18:00 to 06:00 h dark), room temperature 19-23° C., relative air humidity 45-65%, air exchange 19 times per hour, air movement <0.2 m/s, free choice of tap water and standard feed, Macrolon Type 4 cages with 5 animals per cage. The solutions of the test substances and/or vehicles (10% […], 5% Cremophor EL, 5% glucose) were administered intravenously.
The analgesic efficacy of the test compounds was examined in the hot beam (tail flick) test in rats using the method of D'Amour and Smith (J. Pharm. Exp. Ther. 1941, 72, 74-79). The time from switching on the lamp (8V/50 W) to the sudden flicking away of the tail from the hot beam (pain latency) was measured by means of a semiautomatic apparatus (tail-flick Analgesiemeter Type 50/08/1.bc, Labtec, Dr. Hess, Germany). The lamp intensity was adjusted before conducting the experiments so that the time from switching on the lamp to the sudden flicking away of the tail (pain latency) amounted to 3-5 seconds in untreated animals. The lamp was automatically switched off after 12 seconds to avoid tissue damage to the rat's tail. The pain latency was measured 10, 20, 40 and 60 min after intravenous administration. The analgesic effect was determined as increase in pain latency (% MPE) according to the following formula: […]
In this case, T0 is the latency time before and T1 the latency time after substance application, T2 is the maximum exposure time (12 sec). Results of the analgesia study in the tail-flick test in rats:
The following experiments of Example 2 relate to binding studies and the analgesic efficacy of the compounds with dual mode of action according to the invention. The experiments comprise the determination of the (f)Ki value at the TPRV1 receptor, the Ki value at the μ-opioid receptor and the hypothermia assay in mice. The tail-flick test for the compounds [1], [4], [7] and [10] according to the invention was conducted in a similar manner to the above-described method (cf. Example 1, experiment 1).

male NMRI mice = experiment: Hypothermia assay in mice (capsaicin-induced hypothermia); type: in vivo, mouse; conditions: dosage 3 mg/kg p.o., capsaicin 3 mg/kg i.p.
Experimental: The hypothermia assay was conducted on male NMRI mice (weight 25-35 gram). The animals were kept in standardised conditions: light/dark rhythm (6:00 to 18:00 h light phase, 18:00 to 6:00 h dark phase), room temperature 19-22° C., relative air humidity 35-70%, air exchange 15 times per hour, air movement <0.2 m/sec. The animals received standard feed (ssniff R/M-Haltung, ssniff Spezialdiäten GmbH, Soest, Germany) and tap water. Water and feed were withdrawn during the test. All the animals were used only once in the test. […] The acute application of capsaicin (VR-1 agonist) causes a drop in core body temperature in rats and mice via a stimulation of heat sensors. Only specific active VR-1 receptor antagonists can antagonise capsaicin-induced hypothermia. In contrast, hypothermia induced by morphine is not antagonised by VR-1 antagonists. This model is therefore suitable for identifying substances with VR-1 antagonist properties via the effect on the body temperature.
A digital thermometer (Thermalert TH-5, physitemp, Clifton N.J., USA) is used for measuring the core body temperature. The measurement sensor is inserted into the rectum of the animals in this case. As an individual base value the body temperature is measured twice in each animal at an interval of approximately half an hour. A group of animals (n=6 to 10) then received an intraperitoneal (i.p.) application of capsaicin of 3 mg/kg and vehicle (control group). Another group of animals received the substance to be tested (i.v. or p.o.) and additionally capsaicin (3 mg/kg) i.p. The test substance was applied i.v. 10 min or p.o. 15 minutes before the application of capsaicin. Then, the body temperature was measured 7.5, 15 and 30 min after capsaicin application (i.v.+i.p.) or 15, 30, 60, 90 and 120 min after capsaicin application (p.o.+i.p.). In addition, one animal group was treated only with test substance and one group was treated only with vehicle. The antagonist effect is calculated as a percentage reduction in the capsaicin-induced hypothermia.

[1] = molecular target: T1, human recombinant μ-opioid receptor (Homo sapiens, UniProt P35372); experiment: Ki value at the μ-opioid receptor (Experiment 4); type: binding
T1 construct: expressed in transfected cells; host or cells: CHO-K1 cells (membrane preparation)
T1 sequence (P35372 whole entry): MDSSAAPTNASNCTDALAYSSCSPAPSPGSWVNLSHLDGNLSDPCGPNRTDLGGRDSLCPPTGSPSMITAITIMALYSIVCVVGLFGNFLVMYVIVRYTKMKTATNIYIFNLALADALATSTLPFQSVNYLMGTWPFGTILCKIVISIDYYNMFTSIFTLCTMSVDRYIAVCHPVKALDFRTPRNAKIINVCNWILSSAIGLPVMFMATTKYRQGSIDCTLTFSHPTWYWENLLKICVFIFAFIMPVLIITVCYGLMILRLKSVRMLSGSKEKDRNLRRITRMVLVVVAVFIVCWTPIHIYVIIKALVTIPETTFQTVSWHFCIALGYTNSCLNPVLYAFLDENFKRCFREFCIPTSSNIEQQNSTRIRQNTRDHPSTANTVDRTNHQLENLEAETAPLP

[2] = molecular target: T2, vanilloid receptor 1 (VR1/TRPV1) (Homo sapiens, UniProt Q8NER1); experiment: FLIPR capsaicin assay; type: cell-based, human or rat; conditions: functional Ki, capsaicin 100 nM, VR1-transfected CHO K1 cells, modified Cheng-Prusoff; read-out: f(Ki) (VR1)
T2 construct: expressed in transfected cells; host or cells: CHO K1 cells (ECACC), stably transfected
T2 sequence (Q8NER1 whole entry): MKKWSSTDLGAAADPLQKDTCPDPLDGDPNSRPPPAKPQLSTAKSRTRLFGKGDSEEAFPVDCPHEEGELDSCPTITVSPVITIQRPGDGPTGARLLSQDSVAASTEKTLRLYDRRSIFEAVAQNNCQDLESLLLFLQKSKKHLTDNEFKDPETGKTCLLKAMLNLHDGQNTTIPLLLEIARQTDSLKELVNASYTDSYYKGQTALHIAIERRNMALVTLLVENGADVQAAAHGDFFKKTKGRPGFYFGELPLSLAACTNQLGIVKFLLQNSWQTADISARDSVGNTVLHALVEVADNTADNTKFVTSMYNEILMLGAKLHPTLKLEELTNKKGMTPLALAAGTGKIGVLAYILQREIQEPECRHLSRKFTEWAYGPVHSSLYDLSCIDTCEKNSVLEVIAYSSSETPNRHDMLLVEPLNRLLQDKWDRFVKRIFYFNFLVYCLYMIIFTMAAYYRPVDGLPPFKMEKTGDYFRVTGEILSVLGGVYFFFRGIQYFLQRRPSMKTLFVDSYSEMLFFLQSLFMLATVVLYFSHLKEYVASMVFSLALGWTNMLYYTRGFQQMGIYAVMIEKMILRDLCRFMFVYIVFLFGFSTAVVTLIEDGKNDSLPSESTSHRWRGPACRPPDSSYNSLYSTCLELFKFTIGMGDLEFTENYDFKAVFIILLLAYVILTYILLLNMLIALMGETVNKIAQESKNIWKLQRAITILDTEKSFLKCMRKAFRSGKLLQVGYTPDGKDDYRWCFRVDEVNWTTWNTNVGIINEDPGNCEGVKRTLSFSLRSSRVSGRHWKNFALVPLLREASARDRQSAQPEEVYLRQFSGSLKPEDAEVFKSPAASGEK
Source text: (§1) The agonist or antagonist effect of substances can be determined at the vanilloid receptor 1 (VR1/TRPV1) of the human and rat species with the assay described below. Accordingly, the Ca^2+ influx through the channel is quantified by means of a Ca^2+-sensitive dye (Fluo-4, Molecular Probes Europe BV, Leiden, The Netherlands) in the fluorescent imaging plate reader (FLIPR, Molecular Devices, Sunnyvale, USA).
(§2) Chinese hamster ovary cells (CHO K1 cells, ECACC, England) are stably transfected with human or rat VR1 cDNA. For functional studies these cells are plated onto poly-D-lysine-coated black 96-hole plates with a clear base (BD Biosciences, Heidelberg, Germany) in a density of 25 000 cells/cavity. The cells are incubated overnight at 37° C. with 5% CO2 in culture medium (nutrient mixture Ham's F12, Gibco Invitrogen GmbH, Karlsruhe, Germany) with 10% vol. FBS (foetal bovine serum, Gibco Invitrogen GmbH, Karlsruhe, Germany) and 18 μg/ml of L-proline (Gibco Invitrogen GmbH, Karlsruhe, Germany). On the following day, the cells are laden with 2 μM Fluo-4 and 0.01% vol. Pluronic F127 (Molecular Probes Europe BV, Leiden, The Netherlands) in HBSS buffer (Hank's buffered saline solution, Gibco Invitrogen GmbH, Karlsruhe, Germany) for 30 min at 37° C. The plates are then washed 3 times in HBSS buffer and after further incubation for 15 minutes at room temperature are placed in the FLIPR for the Ca^2+ measurement. In this case, the Ca^2+-dependent fluorescence is measured before and after the addition of substances (λex=488 nm, λem=540 nm). Quantification occurs as a result of the measurement of the highest fluorescence intensity (FC, fluorescence counts) over time.
The FLIPR protocol consists of 2 substance additions. Test substances (10 μM) are firstly pipetted onto the cells and the Ca^2+ influx is compared to the control (capsaicin 10 μM). This gives the specification in % activation in relation to the Ca^2+ signal after adding 10 μM of capsaicin. After 5 minutes incubation 100 nM of capsaicin are applied and the influx of Ca^2+ likewise determined. Desensitising agonists and antagonists lead to a suppression of the Ca^2+ influx. Inhibition values [%] are calculated in comparison to the maximum achievable inhibition with a saturating concentration of […] or another reference antagonist. The test substance is added in different concentrations to determine the IC50 and functional Ki value ((f)Ki). Triple determinations (n=3) are conducted and these are repeated in at least one further independent experiment (N>=2). A capsaicin dose action curve is generated to incorporate the thus determined EC50 values into the associated (f)Ki determination. EC50/IC50 values are calculated using ‘Prism4’ software from GraphPad Software™ or with XLfit4™ (ID Business Solutions Ltd.). (f)Ki values are calculated in accordance with the modified Cheng-Prusoff equation (Cheng, Prusoff; Biochem. Pharmacol. 22, 3099-3108, 1973). Testing for non-specific inhibition of the fluorescence as a result of the substances is conducted by activating wild type CHO K1 cells incubated with the same test substances with ATP (10 μM final concentration).

human VR1 = molecular target: T3, human VR1 (Homo sapiens, UniProt Q8NER1); experiment: FLIPR pH assay; type: cell-based
T3 construct: expressed in transfected cells; host or cells: CHO K1 cells (ECACC), stably transfected
T3 sequence (Q8NER1 whole entry): as above
Source text: as §1, §2
In the pH assay, HBSS that now contains 60 mM MES instead of capsaicin is applied to human VR1-transfected CHO K1 cells (adjusted pH value of the addition solution is 4.95). Percentage inhibition and IC50 values are raised and evaluated as already described for the capsaicin test.

Row | Compound | Tail-Flick [% MPE] (rats) | Hypothermia Assay [% Inhibition] (male NMRI mice) [%^1)] | Ki [1] [nM] | Ki [2] [nM] | IC50 (human VR1) [nM]
1 | CC(C(=O)NCc1ccc(C(F)(F)F)cc1N1CCC(c2cccs2)(N(C)C)CC1)c1ccc(NS(C)(=O)=O)c(F)c1 (centres unmarked) [[4], N-(2-(4-(dimethylamino)-4-(thiophen-2-yl)piperidin-1-yl)-4-(trifluoromethyl)benzyl)-2-(3-fluoro-4-(methylsulfonamido)phenyl)propanamide] | n.e.^3), 37%^4) % MPE | 4 | 61 | 5 | 776
2 | CC(C(=O)NCc1ccc(C(F)(F)F)cc1N1CCC(Cc2ccccc2)(N(C)C)CC1)c1ccc(NS(C)(=O)=O)c(F)c1 (centres unmarked) [[7], N-(2-(4-benzyl-4-(dimethylamino)piperidin-1-yl)-4-(trifluoromethyl)benzyl)-2-(3-fluoro-4-(methylsulfonamido)phenyl)propanamide] | n.e.^3), 100%^4) % MPE | 59 | 24 | 2.8 | 434
3 | CC(C(=O)NCc1ccc(C(F)(F)F)cc1N1CCC(Cc2cccc(F)c2)(N(C)C)CC1)c1ccc(NS(C)(=O)=O)c(F)c1 (centres unmarked) [[10], N-(2-(4-(dimethylamino)-4-(3-fluorobenzyl)piperidin-1-yl)-4-(trifluoromethyl)benzyl)-2-(3-fluoro-4-(methylsulfonamido)phenyl)propanamide] |  | 29 | 79 | 1.4 | 137
